Results on 15 molecules are retold here after patent publication US7576102B2, “Biaryl substituted nitrogen containing heterocycle inhibitors of LTA4H for treating inflammation” (deCODE genetics ehf, priority 2005, dated 2009).

As a reminder, the IC50 is the concentration at which inhibition is half-maximal.

Molecules are shown by their SMILES. Structures can show the parent of a compound that is named as a salt.

In one assay the target is T1, human LTA4 hydrolase (Homo sapiens, UniProt P09960).
T1 construct: A human LTA4 hydrolase full-length cDNA clone (NM_000895) was purchased from OriGene Technologies; made in house; host or cells: Escherichia coli BL21-AI
T1 sequence (P09960 1-611): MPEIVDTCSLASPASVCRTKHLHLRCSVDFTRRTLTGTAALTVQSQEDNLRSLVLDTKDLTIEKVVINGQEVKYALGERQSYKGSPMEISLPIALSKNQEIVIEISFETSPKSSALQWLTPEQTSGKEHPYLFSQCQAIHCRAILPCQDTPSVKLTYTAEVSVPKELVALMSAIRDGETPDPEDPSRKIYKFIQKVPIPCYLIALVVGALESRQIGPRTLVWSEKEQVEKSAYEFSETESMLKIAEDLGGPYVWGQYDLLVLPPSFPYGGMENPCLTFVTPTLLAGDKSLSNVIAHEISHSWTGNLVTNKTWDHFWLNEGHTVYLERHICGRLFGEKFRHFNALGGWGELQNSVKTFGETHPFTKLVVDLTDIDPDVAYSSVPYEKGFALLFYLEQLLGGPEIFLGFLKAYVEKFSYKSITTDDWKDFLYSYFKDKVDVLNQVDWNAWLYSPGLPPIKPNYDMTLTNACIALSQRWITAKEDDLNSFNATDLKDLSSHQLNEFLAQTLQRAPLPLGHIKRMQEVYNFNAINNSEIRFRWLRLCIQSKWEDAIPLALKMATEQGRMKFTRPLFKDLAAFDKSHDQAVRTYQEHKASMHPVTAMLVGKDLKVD
Nature of the assay: In vitro assay testing inhibitory activity against purified recombinant human LTA4 hydrolase. The class given is biochemical. The settings on record: 200 nM recombinant enzyme, 2 μM LTA4, LTB4 by LC-MS/MS; read-out: IC50(μM) (hLTA4H). The source says:
(1) In vitro Assay Testing Inhibitory Activity Against Purified Recombinant Human LTA4 Hydroase:
A human LTA4 hydrolase full-length cDNA clone (NM_000895) was purchased from OriGene Technologies (Rockville, Md.). The gene was amplified by polmerase chain reaction and transferred via pDONR201 into the bacterial expression vector pDEST17 by recombination (both plasmids from Invitrogen, Carlsbad, Calif.). The resulting construct was transformed into Escherichia coli BL21-AI (Invitrogen), and expression was induced by chemical induction with arabinose. The recombinant enzyme was purified by chromatography on a FPLC system (Amersham Biosciences, Uppsala, Sweden) using immobilized metal affinity chromatography (Ni-NTA Superflow, Qiagen, Hilden, Germany) and anion exchange chromatography (MonoQ HR 10/10, Amersham Biosciences).
The compounds of the invention were incubated in a series of dilutions with 200 nM of recombinant enzyme in assay buffer (100 mM Tris-HCl, 100 mM NaCl, 5 mg/ml fatty-acid free BSA, 10% DMSO, pH 8.0) for 10 min at room temperature to allow binding between LTA4 hydrolase and the inhibitors. LTA4 was prepared by alkaline hydrolysis of LTA4 methyl ester (Biomol, Plymouth Meeting, Pa., or Cayman Chemicals, Ann Arbor, Mich.). A solution of 10 μg of the ester was dried under a nitrogen stream and redissolved in 60 μl of a solution of 80% aceton and 20% 0.25 M NaOH. After incubation for 40 min at room temperature the resulting approximately 500 μM tock of LTA4 was kept at −80° C. for no more than a few days prior to use.
Immediately before the assay, LTA4 was diluted to a concentration of 10 μM in assay buffer (without DMSO) and added to the reaction mixture to a final concentration of 2 μM to initiate the enzyme reaction. After incubation for 120 sec at room temperature, the reaction was stopped by adding 2 volumes of chilled quenching buffer, containing acetonitrile with 1% acetic acid and 225 nM LTB4-d4 (Biomol). The samples were then kept at 4° C. over night to complete protein precipitation and centrifuged for 15 min at 1800 g. LTB4 formed was measured by LC-MS/MS using LTB4-d4 as an internal standard and an external LTB4 standard (Biomol) as reference. Briefly, the analyte was separated from LTB4 isomers formed by spontaneous hydrolysis of LTA4 using isocratic elution (modified protocol from Mueller et al. (1996), J. Biol. Chem. 271, 24345-24348) on a HPLC system (Waters, Milford, Mass.) and analyzed on a tandem quadrupole mass spectrometer (Waters). MRM transitions followed on 2 channels were 335.2>195.3 (LTB4) and 339.2>197.3 (LTB4-d4). Based on the amounts of LTB4 found at each inhibitor concentration, a dose-response curve was fitted to the data and an IC50 value was calculated.

In assay [1] the test system is LTB4 in human whole blood. Nature of the assay: Ex vivo assay testing inhibitory activity in human whole blood after stimulation with calcium ionophore (LTB4 by immunoassay). The class given is cell-based. The settings on record: 20 μM ionomycin, read-out: IC50(μM) (hWB). As for the experimental part: (2) Ex vivo Assay Testing Inhibitory Activity in Human Whole Blood After Stimulation with Calcium Ionophor: Human blood was collected in heparin-containing Vacutainer tubes. For each sample, 200 μl of blood were dispensed into a pre-warmed plate and 188 μl of RPMI-1640 medium (Invitrogen) containing 20 μg/ml Indomethacin (Sigma, St. Louis, Mo.) were added. Then 4 μl of a series of compound dilutions (in DMSO) were added, followed by a 15 min incubation at 37° C. with gentle shaking. After that, blood samples were stimulated by adding lonomycin (Calbiochem) to a final concentration of 20 μM. After another incubation at 37° C. for 30 min, samples were centrifuged for 5 min at 1800 g and 4° C. Supernatants were taken and LTB4 concentrations were determined using a commercially available enzyme-linked immunoassay (R&D Systems, Minneapolis, Minn.) according to the manufacturer's instructions. Results obtained for different concentrations of hydrolase inhibitor were then used to fit a dose-response curve and calculate an IC50 value.

The test system of the next assay is colitis symptoms. The settings on record: eight weeks of treatment; cited from earlier work.
In assay [2] the test system is ionophore-induced LTB4 production. The settings on record: oral administration; cited from earlier work.
Assay [3] has the same test system. The settings on record: oral administration; cited from earlier work. This is another data set of the same source.

With `O=C(O)CCCN1CCC(Oc2ccc(Oc3ccccc3)cc2)CC1` [Example 6, 4-[4-(4-Phenoxy-phenoxy)-piperidin-1-yl]-butyric acid hydrochloride salt], the IC50 on human LTA4 hydrolase was less than 5 µM.

As for `c1ccc(-c2ccc(Oc3ccc(OC4CCNCC4)cc3)cc2)cc1` [Example 8, 4-[4-(Biphenyl-4-yloxy)-phenoxy]-piperidine hydrochloride salt], the 50% inhibitory concentration (IC50) (in assay [1]; on human LTA4 hydrolase) was less than 5 µM throughout. Regarding `c1ccc(Oc2ccc(O[C@@H]3CCNC3)cc2)cc1` [Example 11, (R)-3-(4-Phenoxy-phenoxy)-pyrrolidine hydrochloride], on human LTA4 hydrolase, the half-inhibitory concentration (IC50) was less than 5 µM. Take `c1ccc(Oc2ccc(OC3CCNCC3)cc2)cc1` [Example 3, 4-(4-Phenoxy-phenoxy)-piperidine hydrochloride salt]: the half-maximal inhibitory concentration (IC50) (in assay [1]; at human LTA4 hydrolase) was less than 5 µM throughout. Consider `c1ccc(Cc2ccc(O[C@H]3CCNC3)cc2)cc1` [Example 1, (S) 3-(4-Benzyl-phenoxy)-pyrrolidine hydrochloride salt], for which the half-maximal inhibitory concentration (IC50) (in assay [1]; on human LTA4 hydrolase) was less than 5 µM throughout. As to `FC(F)(F)Oc1ccc(Oc2ccc(OC3CCNCC3)cc2)cc1` [Example 9, 4-[4-(4-Trifluoromethoxy-phenoxy)-phenoxy]-piperidine hydrochloride], the IC50 on human LTA4 hydrolase lay within 5 to 20 µM. `c1ccc(Cc2ccc(O[C@@H]3CCNC3)cc2)cc1` [Example 2, (R) 3-(4-Benzyl-phenoxy)-pyrrolidine hydrochloride salt]: the half-inhibitory concentration (IC50) (in assay [1]; on human LTA4 hydrolase) was less than 5 µM in each case. `O=C(O)CCCN1CC[C@@H](Oc2ccc(Oc3ccc(Cl)cc3)cc2)C1` [Example 14, 4-{(R)-3-[4-(4-Chloro-phenoxy)-phenoxy]-pyrrolidin-1-yl}-butyric acid HCl]: the half-inhibitory concentration (IC50) at human LTA4 hydrolase was less than 5 µM. Still for that read-out and setting: to `O=C(O)CCCN1CC[C@@H](Oc2ccc(Cc3ccccc3)cc2)C1` [Example 4, 4-[(R)-3-(4-Benzyl-phenoxy)-pyrrolidin-1-yl]-butyric acid hydrochloride salt] belongs less than 5 µM.

`FC(F)(F)c1ccc(Oc2ccc(OC3CCNCC3)cc2)cc1` [Example 7, 4-[4-(4-Trifluoromethyl-phenoxy)-phenoxy]-piperidine hydrochloride salt]: the IC50 at human LTA4 hydrolase is less than 5 µM. For the molecule `NC(=O)CCCN1CC[C@@H](Oc2ccc(Oc3ccccc3)cc2)C1` [Example 13, 4-[(R)-3-(4-Phenoxy-phenoxy)-pyrrolidin-1-yl]-butyramide], the IC50 at human LTA4 hydrolase is less than 5 µM. Still for that read-out and setting: to `O=C(O)CCCN1CC[C@@H](Oc2ccc(Oc3ccccc3)cc2)C1` [Example 12, 4-[(R)-3-(4-Phenoxy-phenoxy)-pyrrolidin-1-yl]-butyric acid hydrogen chloride] belongs less than 5 µM. Regarding `O=C(O)CCN1CCC(Oc2ccc(Oc3ccccc3)cc2)CC1` [Example 5, 3-[4-(4-Phenoxy-phenoxy)-piperidin-1-yl]-propionic acid], the half-maximal inhibitory concentration (IC50) on human LTA4 hydrolase was less than 5 µM. The same measure, in the same setting: the value for `Clc1ccc(Oc2ccc(OC3CCNCC3)cc2)cc1` [Example 10, 4-[4-(4-Chloro-phenoxy)-phenoxy]-piperidine hydrochloride] was less than 5 µM.

For `CN(CCCOc1ccc(Cc2ccccc2)cc1)CCC(=O)O.Cl` [SC57461], the “colitis symptoms in a primate model” value in the assay on colitis symptoms is on record as “significantly improved colitis symptoms”. The “inhibition of ionophore-induced LTB4 production in mouse blood ex vivo” value in assay [2] is listed as “inhibition of ionophore-induced LTB4 production”. In addition, in assay [3], the “inhibition of ionophore-induced LTB4 production in rat peritoneum in vivo” value was “inhibition of ionophore-induced LTB4 production”.
